Measurements taken from PubChem BioAssay AID179 (DTP/NCI, 2004).
Values joined by “and” are separate entries in the source; they are usually repeats but may differ in a detail not shown here. Equal values may be shown once. Active and inactive are the calls of the source.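 How the source made its calls: active means compounds giving half or more protection of infected cells from virus-caused growth loss, again on retest; inactive means the rest.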

System: CEM cells HIV-1 protection, formazan growth assay
Experiment: NCI AIDS Antiviral Assay
Conditions: for IC50: measured here: growth of uninfected CEM cells
Summary of the method: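 Five concentrations of each compound were applied to infected and uninfected human CEM cells. Protection from HIV-1 was judged from growth measured with a soluble formazan assay.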

SMILES	EC50	IC50	outcome
Nc1nc(N)c(N=O)c(Nc2ccccc2)n1	> 200 µM	33.9 µM	–
CC(O)C(O)C(O)C(O)c1nc2ccccc2[nH]1 (stereo unspecified)	–	–	inactive
CC(C)(C)[Si](C)(C)OCCOCn1cc(F)c(=O)[nH]c1=O	> 200 µM	> 200 µM	–
CCOc1ccc2nc(NC(=O)C(=O)C(C(=O)c3ccccc3-c3ccccc3)C3OC(=O)c4ccccc43)sc2c1 (stereo unspecified)	> 309 µM	132 µM	–
CCO[C@@H]1C2C=CC(C2)[C@H]1[N+](=O)[O-] (stereo partly specified)	> 141 µM	> 141 µM	–
Cc1ccc(S(=O)(=O)N2CCCN(S(=O)(=O)c3ccc(C)cc3)CCN(S(=O)(=O)c3ccc(C)cc3)CCCSCC2)cc1	> 5.5 µM	> 5.5 µM	–
CC1=N/C(=C\c2ccc(Cl)cc2)C(=O)O1	> 32.4 µM	> 32.4 µM	–
O=C(O)c1cc(S(=O)(=O)Nc2cc(Cc3cc(NS(=O)(=O)c4ccc(O)c(C(=O)O)c4)c(O)c(C(=O)O)c3)cc(C(=O)O)c2O)ccc1O	> 100 µM	> 100 µM	–
COC(=O)c1cc(C(=O)O)c(=O)n2ccccc12	> 200 µM	174 µM	–
CC1(C)CN(C(=O)OCc2ccccc2)[C@@H]2N1C(=O)[C@@]2(C)OCCCO[C@]1(C)C(=O)N2[C@H]1N(C(=O)OCc1ccccc1)CC2(C)C	> 200 µM	> 200 µM	–
S=C(NCCNC(=S)SSC(=S)NNc1ccccc1)SSC(=S)NNc1ccccc1	> 200 µM	17.4 µM	–
c1ccc2[nH]c(-c3nc4ccccc4o3)nc2c1	> 15.8 µM	> 15.8 µM	–
Cc1cc2c(=O)c3ccccc3oc2c(C(=O)O)c1C	> 200 µM	> 200 µM	–
O=C1c2ccccc2CC1C1(O)C(=O)Nc2c(Cl)cc(Cl)cc21 (stereo unspecified)	> 102 µM	> 102 µM	–
CC(=O)OCC1OC(n2c(=S)n(-c3ccccc3)c(=O)c3ccccc32)C(OC(C)=O)C(OC(C)=O)C1OC(C)=O (stereo unspecified)	> 32.4 µM	> 32.4 µM	–
O=c1ccc2cc3ccoc3c(OCCCCCCCCCCCCOc3c4occc4cc4ccc(=O)oc34)c2o1	> 38.9 µM	> 38.9 µM	–
Cn1ccnc1CCc1ccc(Cl)cc1Cl	> 708 µM	70.8 µM	–
NC12CC3CC(CC(C3)C1)C2	> 200 µM	> 200 µM	inactive
C[C@@]1(CI)OC(=O)N2CCC[C@H]21	> 891 µM	> 891 µM	–
Cc1c(N)c2ccccc2c(=O)n1C	> 1120 µM	302 µM	–
Cc1c2c(n3c(nc4ccccc43)c1C#N)SCC2	> 200 µM	> 200 µM	–
CCCCCCC(c1ccc(O)c(C(=O)O)c1)c1ccc(O)c(C(=O)O)c1	> 1000 µM	166 µM	–

SMILES	EC50	IC50	outcome
CCOC(C[C@H](O[Si](C)(C)C(C)(C)C)[C@H]1COC(=S)S1)OCC	> 200 µM	155 µM	–
Cc1cc(-c2ccc(Cl)cc2)c(C#N)c(=S)n1C1OC(CO)C(O)C(O)C1O (stereo unspecified)	> 200 µM	> 200 µM	–
O=[N+]([O-])c1cccc(SSc2cccc([N+](=O)[O-])c2)c1	> 200 µM and 20.4 µM	4.57 µM and 34.7 µM and 6.31 µM	–
CCC(O)(COC(N)=O)c1ccccc1 (stereo unspecified)	> 200 µM	> 200 µM	–
C[N+](C)(C)CCCCCCCCCC[N+](C)(C)C	> 603 µM	> 603 µM	–
COc1ccc(/C(C#N)=C/c2ccccc2)cc1	> 200 µM	10.7 µM	–
COc1cc(Nc2nc3c(N)cc(C(F)(F)F)cc3nc2-c2ccccc2)cc(OC)c1OC	> 15.1 µM	> 15.1 µM	–
CCOP(=O)(O)CN1CCNCCN(CP(=O)(O)OCC)CCNCC1	> 100 µM	> 100 µM	–
COc1cccc2c1C1=CC(=O)CCC1C(C)(C)O2 (stereo unspecified)	> 195 µM	110 µM	–
Clc1ccc(N=c2ccc3ccccc3[oH+]2)cc1.Clc1ccc(N=c2ccc3ccccc3[oH+]2)cc1.[Co]	–	–	inactive
c1csc(-c2nn3c(C45CC6CC(CC(C6)C4)C5)nnc3s2)c1	> 200 µM	> 200 µM	–
CCCCCCCN=c1ssc(=O)n1CCCCCCC	> 200 µM	8.91 µM	–
O=C(CC1=Nc2nnc(-c3nnc4n3C(=O)C(CC(=O)c3cccnc3)=N4)n2C1=O)c1cccnc1	> 15.1 µM	> 15.1 µM	–
NC1CC(n2ccc(=O)[nH]c2=O)OC1C(O)CO (stereo unspecified)	> 100 µM	> 100 µM	–
O=C(CC1SC(=Nc2ccccc2Cl)NC1=O)Nc1ccc(Cl)cc1 (stereo unspecified)	> 631 µM	> 200 µM	–
CCOC(=O)c1sc(SSc2sc(C(=O)OCC)c(C)c2[N+](=O)[O-])c([N+](=O)[O-])c1C	> 200 µM	138 µM	–
CCCCCCOc1ccc(C(=O)NO)cc1	> 200 µM	13.2 µM	–
CC12CCC(=O)N1c1ccc([N+](=O)[O-])cc1N2 (stereo unspecified)	–	–	inactive
CCCCn1c(C)c(C(=O)OCC)c2cc(OCc3ccc(C(=O)Nn4c(C)ccc4C)cc3)c(Br)cc21	> 95.5 µM	> 95.5 µM	–
Cc1cccc(N2C(=O)C(=O)C(c3nc4ccccc4s3)/C(=N/NC(=S)NN)C2=O)c1C (stereo unspecified)	> 269 µM	> 269 µM	–
CC(C)[C@](O)(C(=O)OCC1=CC[N+]2([O-])CC[C@@H](O)[C@@H]12)[C@H](C)O (stereo partly specified)	> 398 µM	> 398 µM	–
COc1ccc(/C=C(\C#N)c2ccc(Cl)cc2)cc1OC	> 200 µM	174 µM	–

SMILES	EC50	IC50	outcome
CCOC(=O)c1c(NC(=S)NCc2ccccc2)sc2c1CCN(C)C2	> 151 µM	95.5 µM	–
COc1cc(/C=C/C(=O)CC(=O)/C=C/c2ccc(O)c(OC)c2)ccc1O	> 200 µM	19.1 µM and 75.9 µM	–
O=[N+]([O-])c1cccc(C2c3ccccc3Oc3ccccc32)c1	> 200 µM	19.1 µM	–
C/C(CC(=O)Nc1cc(Cl)c(Cl)cc1Cl)=N\NC(N)=O	> 21.4 µM	2.75 µM	–
O=C1NCCCC12CCCNC2=O	> 20.9 µM	> 20.9 µM	–
NC12CC3CC(C1)CC(C(=O)O)(C3)C2	> 1070 µM	> 1070 µM	–
CC(=O)OC1CC2C(C)(C)C(=O)C=C[C@]2(C)C2CCC3(C)C(=CC(=O)C3c3ccoc3)[C@]12C (stereo partly specified)	> 22.4 µM	14.1 µM	inactive
O=C(O)CNS(=O)(=O)c1ccc(NC(=O)c2ccc([N+](=O)[O-])cc2)cc1	–	–	inactive
CC(=O)OC1CCC(OC(C)=O)[C@H]2[C@@H]1[C@@H]1S[C@H]2c2ccccc21 (stereo partly specified)	> 200 µM	42.7 µM	–
O=C(COc1ccc(Br)cc1Br)N1N=C(c2ccc([N+](=O)[O-])o2)CC1(O)c1ccccc1 (stereo unspecified)	> 6.61 µM	> 6.61 µM	–
CC(=O)NC1=NC(=O)/C(=C/c2ccc(Cl)cc2Cl)N1C	–	–	inactive
COC(=O)NN=C1C(C)(C)C(=O)C1(C)C	> 85.1 µM	> 85.1 µM	–
CCNC(=S)NNC(=O)c1ccccc1Nc1ccccc1C(=O)NNC(=S)NCC	–	112 µM	inactive
CN(C)C(=O)c1ccc(N=Nc2c(O)c3ccccc3[nH]c2=O)cc1	> 200 µM	36.3 µM	–
CCCNC(=O)c1nc(SC)sc1NC(=O)c1ccccc1	> 200 µM	> 200 µM	–
CN1C(=O)CC2(C)C1=CCc1scnc12 (stereo unspecified)	> 200 µM	> 200 µM	–
O=c1[nH]c2c(cnn2-c2ccccc2)c(=O)n1OS(=O)(=O)c1ccccc1	> 200 µM	> 200 µM	–
Cc1cc2c(C(C)C)c(O)c(O)c(C=Nc3ccccc3S)c2c(O)c1-c1c(C)cc2c(C(C)C)c(O)c(O)c(C=Nc3ccccc3S)c2c1O	> 200 µM	16.2 µM	–
Cc1cc2c(C)nn(Cc3ccccc3Cl)c2c(C#N)c1C	> 23.4 µM	> 23.4 µM	–
CC(C)=CCC[C@@H](C)C1=C(O)C(Nc2ccccc2Cl)=C(C)C(=O)C1=O	> 200 µM	6.31 µM	–
COC(=O)C1CCc2c(OC)ccc(OC)c2C1=O (stereo unspecified)	–	–	inactive
CCC(C#N)NC(=O)NC(C#N)CC (stereo unspecified)	> 200 µM	107 µM	–

SMILES	EC50	IC50	outcome
CC(=O)OCCSSCCOC(C)=O	> 200 µM	89.1 µM	–
Cc1cc(Cl)cc2c1NC(=O)C2(O)CC(=O)c1ccc(Br)cc1 (stereo unspecified)	> 91.2 µM	70.8 µM	–
O=[N+]([O-])c1ccc(P2(=O)Nc3ccccc3N2)cc1	> 245 µM	70.8 µM	–
Cc1cc(=O)c2c(=O)oc3c4ccccc4ccc3c2o1	> 200 µM	105 µM	–
COc1cccc(/C=N/[N-]C(=O)c2ccncc2)c1[O-].[OH3+].[Pd+2]	> 16.6 µM	> 16.6 µM	–
CN(C)c1ccc(/C=N/NC2=N/C(=C\c3ccco3)C(=O)N2)cc1	> 100 µM	> 100 µM	–
NC(=S)N/N=C/c1c(O)c2cc(Cl)ccc2[nH]c1=O	> 200 µM	93.3 µM	–
O=c1[nH]c(=O)n(C2OC(CO)C(O)C2O)cc1F (stereo unspecified)	> 20 µM	0.00631 µM	–
CCO/C(O)=c1/s/c(=C2/SC(=S)N(c3ccc(C)cc3)C2=O)n(-c2ccccc2)c1=N	> 1.58 µM	> 1.58 µM	–
Cc1cc(C)nc(NS(=O)(=O)c2ccc(NC(=O)c3ccc4nc5ccccc5c(Nc5ccc(S(=O)(=O)Nc6nc(C)cc(C)n6)cc5)c4c3)cc2)n1	> 200 µM	29.5 µM	–
CC(/C=C/C(O)=C1/C(=O)CNC1=O)=C\[C@@H](C)[C@H]1O[C@@]2(C)O[C@H](C(=O)[C@@H]3O[C@@]32C)[C@@H]1C	> 200 µM	91.2 µM	–
Cc1[nH]c2c(C)c3c([nH]c4ccc(Cl)cc43)c(C)c2c(=O)c1C	> 17 µM	9.77 µM	–
Cc1ccc(S(=O)(=O)OCC2OC(CCCO)C/C([Si](C)(C)C)=C\CC2Cl)cc1 (stereo unspecified)	> 8.13 µM	> 8.13 µM	–
CO[C@H](/C(C)=C/C=C/C(C)=C/c1coc(C)n1)[C@H](C)[C@H]1C[C@@H](O)[C@@]2(C)O[C@H]2/C=C/[C@@H](C)[C@@H]2C[C@@H](CC(=O)O2)C[C@H]2O[C@@H]2C(=O)O1	> 0.219 µM	0.00017 µM	–
Cc1cc(=O)oc2cc(NCS(=O)(=O)O)ccc12	> 617 µM	> 617 µM	–
CC(=O)C(CN(C)C)C(c1ccccc1)c1c(O)c2ccccc2oc1=O (stereo unspecified)	> 64.6 µM	11 µM	–
CCN(CC)CCC1CCCCN1CC(=O)N1c2ccccc2NC(=O)CC1C (stereo unspecified)	> 200 µM	> 200 µM	–
CCN(CC)CCN1C(=O)c2cccc3c(N)c(OC)cc(c23)C1=O	> 200 µM	3.39 µM	–
Oc1cccc2c(Br)ccnc12	> 20 µM	5.13 µM	–
